Consider 14 molecules from ChEMBL document CHEMBL1142280, “Discovery of new small molecules that influence neuroblast cell migration from the subventricular zone” (2008).

Assay [1] is filed under the species Mus musculus. Briefly: (§1) Inhibition of mouse neuroblast cell migration from subventricular zone tissue explants at 63 uM after 48 hrs relative to control. Format: functional.
The species named for assay [2] is Mus musculus. Briefly: Inhibition of mouse neuroblast cell migration from subventricular zone tissue explants at 100 uM after 48 hrs relative to control. It counts as functional.
The nature of assay [3]: as §1. It counts as functional.
Assay [4] is described as follows: Inhibition of mouse neuroblast cell migration from subventricular zone tissue explants at 223 uM after 48 hrs relative to control. It counts as functional.
The nature of assay [5]: Inhibition of mouse neuroblast cell migration from subventricular zone tissue explants at 154 uM after 48 hrs relative to control. It counts as functional.
The species named for assay [6] is Mus musculus. Nature of the assay: Inhibition of mouse neuroblast cell migration from subventricular zone tissue explants at 12.3 uM after 48 hrs relative to control. Format: functional.
Assay [7] is described as follows: Inhibition of mouse neuroblast cell migration from subventricular zone tissue explants at 123 uM after 48 hrs relative to control. Format: functional.
The species named for assay [8] is Mus musculus. Briefly: Inhibition of mouse neuroblast cell migration from subventricular zone tissue explants at 22 uM after 48 hrs relative to control. It counts as functional.
Assay [9] can be described thus: Inhibition of mouse neuroblast cell migration from subventricular zone tissue explants at 224 uM after 48 hrs relative to control. It counts as functional.
Assay [10] is filed under the species Mus musculus. Nature of the assay: Inhibition of mouse neuroblast cell migration from subventricular zone tissue explants at 13.9 uM after 48 hrs relative to control. It counts as functional.
Assay [11] can be described thus: Inhibition of mouse neuroblast cell migration from subventricular zone tissue explants at 139 uM after 48 hrs relative to control. Format: functional.
Assay [12] is described as follows: Inhibition of mouse neuroblast cell migration from subventricular zone tissue explants at 250 uM after 48 hrs relative to control.
Assay [13] is filed under the species Mus musculus. Nature of the assay: Inhibition of mouse neuroblast cell migration from subventricular zone tissue explants at 6.8 uM after 48 hrs relative to control. Format: functional.
The species named for assay [14] is Mus musculus. Briefly: Inhibition of mouse neuroblast cell migration from subventricular zone tissue explants after 24 hrs. It counts as functional.
Assay [15] in a line: Inhibition of mouse neuroblast cell migration from subventricular zone tissue explants at 68 uM after 48 hrs relative to control. Format: functional.
Assay [16] in a line: Inhibition of mouse neuroblast cell migration from subventricular zone tissue explants at 34 uM after 48 hrs relative to control. It counts as functional.
Assay [17] is filed under the species Mus musculus. Nature of the assay: Inhibition of PR21-stimulated mouse neuroblast cell migration from subventricular zone tissue explants after 24 hrs. It counts as functional.
The species entered for assay [18] is Mus musculus. Nature of the assay: Reversal of inhibition of mouse neuroblast cell migration from subventricular zone tissue explants in presence of PR21. Format: functional.
For assay [19], the species on record is Mus musculus. Briefly: Inhibition of mouse neuroblast cell migration from subventricular zone tissue explants at 67 uM after 48 hrs relative to control. It counts as functional.

What is called inhibition is the share of the control response that was lost under treatment. A higher inhibition goes with a response far below the control.

Calls of active or inactive are those of the source. The rule behind the calls is not given here.

As for `C1CNCCNCCCN(CC2CCC(CN3CCCNCCNCCCNCC3)CC2)CCNC1` (configuration not stated), in assay [1], the outcome was inactive.

Regarding `CC(CNCCCCCN)SSC(C)CNCCCCCN` (configuration not stated), in [2], the result was inactive.

Turning to `c1cc(CN2CCCNCCNCCCNCC2)cc(CN2CCCNCCNCCCNCC2)c1`, in assay [3], testing at 63 µM gave an inhibition of 10%.

`NCCSSCCN` [CYSTAMINE]: testing at 223 µM in assay [4] gave an inhibition of 33%.

`O=C(NCCCCCCNC(=O)c1ccccc1)c1ccccc1` had an inhibition at 154 µM in [5] of 50%.

As for `c1ccc(CNCCSSCCNCc2ccccc2)cc1`, the outcome in [6] was inactive. The molecule further yielded an inhibition at 123 µM in [7] of 100%.

Consider `C1CNCCNCCNCCN1`, for which, in assay [8], the result was inactive. Besides, at 224 µM the inhibition in assay [9] was 19%.

With `O=C(NCCSSCCNC(=O)c1ccccc1)c1ccccc1`, the outcome in assay [10] was inactive. Besides, at 139 µM the inhibition in assay [11] was 100%.

For the molecule `C1CNCCNCCCNCCNC1`, in [12], the inhibition at 250 µM was determined as 20%.

On to `COc1ccccc1CNCCCCCCNCCSSCCNCCCCCCNCc1ccccc1OC` [BENEXTRAMINE], for which the result in [13] was inactive. The outcome in [14], in assay [17] and in assay [18] was Active. In [15], this molecule gave an inhibition at 68 µM of 100%. In assay [16], this molecule had an inhibition at 34 µM of 45%.

Turning to `c1ccc(CN2CCCNCCNCCCNCC2)c(CN2CCCNCCNCCCNCC2)c1`, the result in assay [1] was inactive.

For `c1cc(CN2CCCNCCNCCCNCC2)ccc1CN1CCCNCCNCCCNCC1`, the outcome in assay [1] was inactive.

With `C1CNCCNCCCN(CCCCN2CCCNCCNCCCNCC2)CCNC1`, in assay [19], the outcome was inactive.

As for `O=C(c1ccc(C(=O)N2CCCNCCNCCCNCC2)cc1)N1CCCNCCNCCCNCC1`, the outcome in assay [19] was inactive.
